Literature values in PMC5680437 (Journal of Clinical & Translational Endocrinology, 2015).

Legend:
[1] = subcutaneous; ref Morrow et al. [18]
[2] = system: healthy volunteers; conditions: ref Arnolds et al. [19]
[3] = 0.2 U/kg dose; ref Heise et al. [20]

Substance	Time to 50% of maximal concentration within the first hour [1] [min]	AUC for glucose infusion rate (to maintain euglycemia) [2] [mg/kg]	AUC for the glucose infusion rate in the first hour [3] [mg/kg]
insulin aspart	32	16	–
insulin glulisine	21	30	102.3
insulin lispro	31	–	83.1
